Results as given in patent US10987336B2, “Method of preventing or treating side effect of tumor therapy” (priority 2018, dated 2021).
Like-named read-outs stand apart in the source and are kept apart here.

Legend:
[1] = system: HUVEC cells; assay: CCK-8 cell survival: ameliorating proliferative toxicity of VEGF/VEGFR inhibitor (Examples 4-15); format: cell-based; conditions: agent 100 μM, 24-48 h
[2] = system: HaCaT cells; format: cell-based, human
[3] = system: Calmodulin (CaM); assay: Western Blot expression level in HaCaT cells (Example 147); format: cell-based, human; conditions: 24 hours, compared with the control group
Description: In the present application, compared effect of the nitric oxide releasing agent with calcium channel blocker on expression levels of calmodulin and calreticulin in HaCat cell The cultured HaCaT cells were digested, suspended, counted, and seeded into a 6-well plate with 200,000 cells per well. After the cells were attached, a nitric oxide releasing agent (or calcium channel blocker) solution was added to achieve a particular final concentration. A basic medium was added into the control group. At 24 hours after administration of the nitric oxide releasing agent (or calcium channel blocker), RIPA lysate [MUT], Beyotime Biotechnology) was used to extract protein. The change of expressions of calmodulin and calreticulin was determined by Western Blot. […] Image Lab was used to analyze the gray value results. GraphPad Prism 6.0 Software and t-test were used to carry out a statistic analysis of the results and plot a graph. Of those, represents P<0.001, ** represents P<0.01, * represents P<0.05, indicating a significant difference as compared with the corresponding control group; as statistically analyzed by using t-test.

[4] = system: HUVEC cells; format: cell-based; conditions: Sorafenib (V1) 10 μM + agent 50 μM, 24 hours, CCK-8
[5] = HaCaT, Sorafenib (V1) 10 μM + agent 50 μM, 24 hours, CCK-8

Compound	Cell Survival Rate (viable cells increased vs VEGF/VEGFR inhibitor group) ([1]; Regorafenib 10 μM)	Cell Survival Rate (viable cells increased vs VEGF/VEGFR inhibitor group) ([1]; Sorafenib 5 μM)	Cell Survival Rate (viable cells increased vs VEGF/VEGFR inhibitor group) ([1]; Sunitinib 5 μM)	Cell Survival Rate (viable cells increased vs VEGF/VEGFR inhibitor group) ([1]; Apatinib 10 μM)	Cell Survival Rate (viable cells increased vs VEGF/VEGFR inhibitor group) ([1]; Axitinib 10 μM)	Cell Survival Rate (viable cells increased vs VEGF/VEGFR inhibitor group) ([1]; Lenvatinib Mesylate 10 μM)	Cell Survival Rate (viable cells increased vs VEGF/VEGFR inhibitor group) ([1]; Nintedanib Esylate 10 μM)	Cell Survival Rate (viable cells increased vs VEGF/VEGFR inhibitor group) ([1]; Pazopanib Hydrochloride 10 μM)	Cell Survival Rate (viable cells increased vs VEGF/VEGFR inhibitor group) ([1]; Thalidomide 10 μM)	other results
NCCN(CCN)/[N+]([O-])=N/O [3,3-Bis (aminoethyl)-1-hydroxy-2-oxo-1-triazene]	Increased by 15-20%	Increased by 35-45%	Increased by 20-30%	–	–	–	–	–	–	–
O=[N+]([O-])O[C@H]1CO[C@H]2[C@@H]1OC[C@H]2O[N+](=O)[O-] [Isosorbide Dinitrate]	–	–	–	–	–	–	–	–	–	Cell Survival Rate (percentage of viable cells increased as compared to the VEGF/VEGFR inhibitor group) [2, 5]: by 20-50%
N=c1c[n+](N2CCOCC2)[n-]o1 [3-morpholinosydnonimine]	Increased by 15-20%	Increased by 30-40%	Increased by 10-20%	–	–	–	–	–	–	–
CCOC(=O)[N-]c1cn(N2CCOCC2)n[o+]1 [Molsidomine]	Increased by 20-30%	Increased by 30-40%	Increased by 20-30%	Increased by 40-50%	Increased by 20-30%	Increased by 30-50%	Increased by 30-50%	Increased by 20-30%	Increased by 20-30%	–
COc1ccc([C@@H]2Sc3ccccc3N(CCN(C)C)C(=O)[C@@H]2OC(C)=O)cc1 [diltiazem]	–	–	–	–	–	–	–	–	–	expression level of calmodulin (CaM), gray value analysis [3]: decreased significantly
O=C(NCCO[N+](=O)[O-])c1cccnc1 [Nicorandil]	Increased by 20-30%	Increased by 50-60%	Increased by 10-20%	Increased by 40-50%	Increased by 20-30%	Increased by 30-50%	Increased by 30-50%	Increased by 20-30%	Increased by 20-30%	–
CC(C)CCON=O [Isoamyl Nitrite]	Increased by 15-20%	Increased by 30-40%	Increased by 20-25%	Increased by 40-50%	Increased by 20-30%	Increased by 30-50%	Increased by 30-50%	Increased by 20-30%	Increased by 20-30%	–
O=[N+]([O-])OCC(CO[N+](=O)[O-])O[N+](=O)[O-] [Nitroglycerin]	–	–	–	–	–	–	–	–	–	Cell Survival Rate (percentage of viable cells increased as compared to the VEGF/VEGFR inhibitor group) [2]: by 20-40%; Cell Survival Rate (percentage of viable cells increased as compared to the VEGF/VEGFR inhibitor group) [4]: by 25-50%
O=[N+]([O-])O[C@@H]1CO[C@H]2[C@@H]1OC[C@@H]2O [Isosorbide Mononitrate]	Increased by 20-30%	Increased by 30-35%	Increased by 20-25%	–	–	–	–	–	–	Cell Survival Rate (percentage of viable cells increased as compared to the VEGF/VEGFR inhibitor group) [2, 5]: by 20-50%; Cell Survival Rate (percentage of viable cells increased as compared to the VEGF/VEGFR inhibitor group) [4]: by 20-40%
CCCc1nn(C)c2c(=O)[nH]c(-c3cc(S(=O)(=O)N4CCN(C)CC4)ccc3OCC)nc12 [Sildenafil]	No significant change	No significant change	No significant change	–	–	–	–	–	–	–
